Data taken from ChEMBL document CHEMBL2086330, “Ras inhibition via direct Ras binding--is there a path forward?” (Bioorg Med Chem Lett, 2012).
pEC50, pIC50, pKd: −log10 of the molar value.

Legend:
[1] = Inhibition of Ras assessed as inhibition of intrinsic nucleotide exchange in cell-based assay
GTPase NRas = GTPase NRas (Homo sapiens, UniProt P01111); assay: Inhibition of N-Ras expressed in Escherichia coli using [3H]GDP and [3H]GTP assessed as inhibition of intrinsic nucleotide exchange by scintillation counting
Sequence of GTPase NRas (P01111 whole entry): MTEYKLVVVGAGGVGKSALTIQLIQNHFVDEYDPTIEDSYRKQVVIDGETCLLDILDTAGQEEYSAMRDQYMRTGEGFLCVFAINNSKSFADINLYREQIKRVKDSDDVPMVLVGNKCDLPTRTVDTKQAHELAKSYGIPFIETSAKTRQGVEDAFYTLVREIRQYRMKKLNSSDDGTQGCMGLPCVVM

[2] = Binding affinity to Ras SOS1 binding site
[3] = biological target: T1, Son of sevenless homolog 1 (Homo sapiens, UniProt Q07889); assay: Inhibition to His6-tagged Sos1 catalytic domain-mediated nucleotide exchange by fluorimetric assay
T1 sequence (Q07889 whole entry): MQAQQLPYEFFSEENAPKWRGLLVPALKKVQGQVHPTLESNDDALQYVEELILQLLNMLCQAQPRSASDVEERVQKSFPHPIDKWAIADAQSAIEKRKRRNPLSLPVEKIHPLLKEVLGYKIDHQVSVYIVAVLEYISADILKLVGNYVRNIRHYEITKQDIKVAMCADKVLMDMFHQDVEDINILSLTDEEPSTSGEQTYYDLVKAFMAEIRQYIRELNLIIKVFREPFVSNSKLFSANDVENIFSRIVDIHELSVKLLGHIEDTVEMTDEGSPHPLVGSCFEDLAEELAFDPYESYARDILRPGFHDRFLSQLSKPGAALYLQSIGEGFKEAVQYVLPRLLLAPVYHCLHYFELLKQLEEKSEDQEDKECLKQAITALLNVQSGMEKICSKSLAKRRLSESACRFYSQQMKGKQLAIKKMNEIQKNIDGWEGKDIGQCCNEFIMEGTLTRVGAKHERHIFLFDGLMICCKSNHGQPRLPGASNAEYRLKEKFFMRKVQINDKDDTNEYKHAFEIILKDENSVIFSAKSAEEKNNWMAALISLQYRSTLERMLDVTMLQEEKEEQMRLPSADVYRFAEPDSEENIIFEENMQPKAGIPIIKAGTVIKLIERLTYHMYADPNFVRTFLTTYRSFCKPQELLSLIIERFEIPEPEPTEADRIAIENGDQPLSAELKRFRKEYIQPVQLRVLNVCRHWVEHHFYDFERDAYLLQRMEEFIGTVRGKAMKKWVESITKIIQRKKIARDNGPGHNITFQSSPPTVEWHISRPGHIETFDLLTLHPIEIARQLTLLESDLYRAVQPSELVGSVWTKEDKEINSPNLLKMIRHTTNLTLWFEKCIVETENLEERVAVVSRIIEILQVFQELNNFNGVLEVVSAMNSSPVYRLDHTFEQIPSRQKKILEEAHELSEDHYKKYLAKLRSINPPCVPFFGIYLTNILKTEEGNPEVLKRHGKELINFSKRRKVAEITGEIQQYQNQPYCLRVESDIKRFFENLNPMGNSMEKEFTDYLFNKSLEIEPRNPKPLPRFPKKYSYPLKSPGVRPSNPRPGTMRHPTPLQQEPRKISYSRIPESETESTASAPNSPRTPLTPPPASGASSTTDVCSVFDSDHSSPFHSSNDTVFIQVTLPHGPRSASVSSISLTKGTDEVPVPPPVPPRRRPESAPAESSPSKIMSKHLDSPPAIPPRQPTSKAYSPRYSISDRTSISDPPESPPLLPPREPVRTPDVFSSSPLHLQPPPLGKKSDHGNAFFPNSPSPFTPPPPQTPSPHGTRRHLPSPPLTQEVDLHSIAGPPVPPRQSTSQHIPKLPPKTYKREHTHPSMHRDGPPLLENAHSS

GTPase KRas = GTPase KRas (Homo sapiens, UniProt P01116, G12D); assay: Binding affinity to K-Ras G12D mutant-GDP complex
Sequence of GTPase KRas (P01116 whole entry G12D): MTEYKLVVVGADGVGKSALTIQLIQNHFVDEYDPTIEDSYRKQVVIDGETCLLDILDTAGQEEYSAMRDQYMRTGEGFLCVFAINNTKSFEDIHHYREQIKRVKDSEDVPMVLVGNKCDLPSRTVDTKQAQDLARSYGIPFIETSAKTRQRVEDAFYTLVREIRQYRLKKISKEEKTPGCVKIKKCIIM

In the case of O=S(=O)(NCCOc1ccc2ccccc2c1)c1ccc(NO)cc1, the pEC50 [1] was 5.00.
With O=S(=O)(c1ccc(NO)cc1)N(CCOc1ccc2ccccc2c1)[C@@H]1O[C@H](CO)[C@@H](O)[C@H](O)[C@H]1O the pIC50 (GTPase NRas) was 6.30.
Compound Nc1cccc(NS(=O)(=O)c2ccc(F)cc2)n1 has an Activity [2] of 1.3 mM.
With CC[C@H](C)[C@H](NC(=O)CN1C/C=C\CCC(=O)N[C@@H](Cc2ccccc2)C(=O)N[C@@H](CCC(=O)O)C1=O)C(=O)N[C@@H](Cc1ccc(O)cc1)C(=O)N[C@@H](CCCNC(=N)N)C(=O)N[C@@H](CC(C)C)C(=O)N[C@@H](CCC(=O)O)C(=O)N[C@@H](CC(C)C)C(=O)N[C@@H](CC(C)C)C(=O)N[C@@H](CCCCN)C(=O)N[C@@H](C)C(=O)N[C@@H](CCC(=O)O)C(=O)N[C@@H](CCC(=O)O)C(=O)N[C@@H](C)C(=O)N[C@@H](CC(N)=O)C(N)=O the pIC50 [3] was 4.60.
Compound c1ccc2c(Cc3nc4ccncc4[nH]3)c[nH]c2c1 has an Activity [2] of 1.3 mM.
CC[C@H](C)[C@H](N)C(=O)Nc1ccc2nc(Cc3c[nH]c4ccccc34)[nH]c2c1 showed a pKd (GTPase KRas) of 3.72.
In the case of Oc1ccccc1C(=S)N1CCCC1, the Activity [2] was 1.3 mM.
